{
  "source": "PubChem BioAssay (NCI)",
  "test_in_all_cases": "NCI-60 cell line screen, 48 h",
  "key": {"SK-MEL-28 melanoma": {"tested_on": "SK-MEL-28 melanoma"}, "T-47D breast": {"tested_on": "T-47D breast"}, "COLO 205 colon": {"tested_on": "COLO 205 colon"}, "MDA-MB-231 breast": {"tested_on": "MDA-MB-231 breast"}, "K-562 leukemia": {"tested_on": "K-562 leukemia"}, "TK-10 renal": {"tested_on": "TK-10 renal"}, "SNB-19 CNS": {"tested_on": "SNB-19 CNS"}, "EKVX NSCLC": {"tested_on": "EKVX NSCLC"}, "SF-295 CNS": {"tested_on": "SF-295 CNS"}, "SR leukemia": {"tested_on": "SR leukemia"}, "A498 renal": {"tested_on": "A498 renal"}, "NCI/ADR-RES ovarian": {"tested_on": "NCI/ADR-RES ovarian"}, "SK-MEL-2 melanoma": {"tested_on": "SK-MEL-2 melanoma"}, "PC-3 prostate": {"tested_on": "PC-3 prostate"}, "HT29 colon": {"tested_on": "HT29 colon"}, "KM12 colon": {"tested_on": "KM12 colon"}, "MOLT-4 leukemia": {"tested_on": "MOLT-4 leukemia"}, "NCI-H460 lung": {"tested_on": "NCI-H460 lung"}, "OVCAR-3 ovarian": {"tested_on": "OVCAR-3 ovarian"}, "SK-MEL-5 melanoma": {"tested_on": "SK-MEL-5 melanoma"}, "BT-549 breast": {"tested_on": "BT-549 breast"}, "HL-60(TB) leukemia": {"tested_on": "HL-60(TB) leukemia"}, "SW-620 colon": {"tested_on": "SW-620 colon"}, "SK-OV-3 ovarian": {"tested_on": "SK-OV-3 ovarian"}, "HCC-2998 colon": {"tested_on": "HCC-2998 colon"}, "786-0 renal": {"tested_on": "786-0 renal"}, "RPMI-8226 leukemia": {"tested_on": "RPMI-8226 leukemia"}},
  "note": "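Interpolation was linear, between the two tested concentrations surrounding the appropriate level; five concentrations were tested over 48 hours in 96-well plates. GI50 = concentration required for 50% inhibition of growth. TGI: concentration producing complete growth inhibition.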",
  "data": [
    {"compound": "COc1ccc2c(c1)/C(=C\\c1c[nH]c3ccc(OC)cc13)C(=O)N2", "values": [
      {"measurement": "GI50", "setting": "SK-MEL-28 melanoma", "result": 4.56, "unit": "µM"},
      {"measurement": "TGI", "setting": "SK-MEL-28 melanoma", "result": 16.7, "unit": "µM"},
      {"measurement": "GI50", "setting": "T-47D breast", "result": 2.99, "unit": "µM"},
      {"measurement": "TGI", "setting": "T-47D breast", "result": 13.4, "unit": "µM"},
      {"measurement": "GI50", "setting": "COLO 205 colon", "result": 2.89, "unit": "µM"},
      {"measurement": "TGI", "setting": "COLO 205 colon", "result": 9.84, "unit": "µM"},
      {"measurement": "GI50", "setting": "MDA-MB-231 breast", "result": 1.97, "unit": "µM"},
      {"measurement": "TGI", "setting": "MDA-MB-231 breast", "result": 6.32, "unit": "µM"},
      {"measurement": "GI50", "setting": "K-562 leukemia", "result": 2.21, "unit": "µM"},
      {"measurement": "TGI", "setting": "K-562 leukemia", "result": 15.5, "unit": "µM"},
      {"measurement": "GI50", "setting": "TK-10 renal", "result": 3.68, "unit": "µM"},
      {"measurement": "TGI", "setting": "TK-10 renal", "result": 13.3, "unit": "µM"},
      {"measurement": "GI50", "setting": "SNB-19 CNS", "result": 6.66, "unit": "µM"},
      {"measurement": "TGI", "setting": "SNB-19 CNS", "result": 20.1, "unit": "µM"},
      {"measurement": "GI50", "setting": "EKVX NSCLC", "result": 3.01, "unit": "µM"},
      {"measurement": "TGI", "setting": "EKVX NSCLC", "result": 15.4, "unit": "µM"},
      {"measurement": "GI50", "setting": "SF-295 CNS", "result": 3.67, "unit": "µM"},
      {"measurement": "TGI", "setting": "SF-295 CNS", "result": 16.8, "unit": "µM"},
      {"measurement": "GI50", "setting": "SR leukemia", "result": 2.39, "unit": "µM"},
      {"measurement": "TGI", "setting": "SR leukemia", "result": 7.9, "unit": "µM"},
      {"measurement": "GI50", "setting": "A498 renal", "result": 1.82, "unit": "µM"},
      {"measurement": "TGI", "setting": "A498 renal", "result": 6.47, "unit": "µM"},
      {"measurement": "GI50", "setting": "NCI/ADR-RES ovarian", "result": 2.65, "unit": "µM"},
      {"measurement": "TGI", "setting": "NCI/ADR-RES ovarian", "result": 8.25, "unit": "µM"},
      {"measurement": "GI50", "setting": "SK-MEL-2 melanoma", "result": 2.3, "unit": "µM"},
      {"measurement": "TGI", "setting": "SK-MEL-2 melanoma", "result": 6.27, "unit": "µM"},
      {"measurement": "GI50", "setting": "PC-3 prostate", "result": 3.84, "unit": "µM"},
      {"measurement": "TGI", "setting": "PC-3 prostate", "result": 16.3, "unit": "µM"},
      {"measurement": "GI50", "setting": "HT29 colon", "result": 4.07, "unit": "µM"},
      {"measurement": "TGI", "setting": "HT29 colon", "result": 14.9, "unit": "µM"},
      {"measurement": "GI50", "setting": "KM12 colon", "result": 0.32, "unit": "µM"},
      {"measurement": "TGI", "setting": "KM12 colon", "result": 10.8, "unit": "µM"},
      {"measurement": "GI50", "setting": "MOLT-4 leukemia", "result": 2.95, "unit": "µM"},
      {"measurement": "TGI", "setting": "MOLT-4 leukemia", "result": 8.14, "unit": "µM"},
      {"measurement": "GI50", "setting": "NCI-H460 lung", "result": 3.26, "unit": "µM"},
      {"measurement": "TGI", "setting": "NCI-H460 lung", "result": 13.1, "unit": "µM"},
      {"measurement": "GI50", "setting": "OVCAR-3 ovarian", "result": 3.65, "unit": "µM"},
      {"measurement": "TGI", "setting": "OVCAR-3 ovarian", "result": 13.6, "unit": "µM"},
      {"measurement": "GI50", "setting": "SK-MEL-5 melanoma", "result": 3.02, "unit": "µM"},
      {"measurement": "TGI", "setting": "SK-MEL-5 melanoma", "result": 12.5, "unit": "µM"},
      {"measurement": "GI50", "setting": "BT-549 breast", "result": 2.31, "unit": "µM"},
      {"measurement": "TGI", "setting": "BT-549 breast", "result": 9.1, "unit": "µM"},
      {"measurement": "GI50", "setting": "HL-60(TB) leukemia", "result": 2.97, "unit": "µM"},
      {"measurement": "TGI", "setting": "HL-60(TB) leukemia", "result": 6.07, "unit": "µM"},
      {"measurement": "GI50", "setting": "SW-620 colon", "result": 2.77, "unit": "µM"},
      {"measurement": "TGI", "setting": "SW-620 colon", "result": 11, "unit": "µM"},
      {"measurement": "GI50", "setting": "SK-OV-3 ovarian", "result": 2.58, "unit": "µM"},
      {"measurement": "TGI", "setting": "SK-OV-3 ovarian", "result": 8.64, "unit": "µM"},
      {"measurement": "GI50", "setting": "HCC-2998 colon", "result": 3.77, "unit": "µM"},
      {"measurement": "TGI", "setting": "HCC-2998 colon", "result": 14.7, "unit": "µM"},
      {"measurement": "GI50", "setting": "786-0 renal", "result": 5.35, "unit": "µM"},
      {"measurement": "TGI", "setting": "786-0 renal", "result": 17.6, "unit": "µM"},
      {"measurement": "GI50", "setting": "RPMI-8226 leukemia", "result": 2.39, "unit": "µM"},
      {"measurement": "TGI", "setting": "RPMI-8226 leukemia", "result": 8.89, "unit": "µM"}
    ]}
  ]
}
